Experiment [1] deals with spontaneously hypertensive rats. Kind of experiment: Hypotensive Activity in Spontaneously Hypertensive Rats. It is filed as in vivo. The following applies: gavage, 100 mg./kg. or less, two doses 24 hours apart; measured 28 hours after initial dose; initial average 170±1.5 mm. The method, then: The novel compounds of the present invention are active hypotensive agents and were tested for hypotensive activity by the method of P. S. Chan and D. Poorvin, Clinical and Experimental Hypertension, 1 (6), 817-830 (1979). Male, 16 week old, spontaneously hypertensive rats of the Okamoto strain, from Taconic Farms, Germantown, N.Y., having an average mean arterial blood pressure of 170±1.5 mm of mercury are used in the test. One to 3 rats are used per test compound. A rat is dosed by gavage with a test compound, suspended in 2% pre-boiled starch at a concentration of 50 mg./ml., at a dose of 100 mg./kg. of body weight or less, with 0.9% sodium chloride loading at a dose of 25 ml./kg. of body weight. A second identical dose of the test compound, without sodium chloride loading is given 24 hours later. At 28 hours after the initial dose the mean arterial blood pressure is measured by the method of Chan and Poorvin vide supra. The procedure is repeated in a second and third rat when necessary.

Experiment [2] concerns the target T1, thromboxane synthetase enzyme (Rattus norvegicus, UniProt P49430).
T1 construct: The platelets were isolated by centrifuging the PRP for 10 minutes at 1060xg; endogenous in cells; host or cells: washed platelets from arterial blood of Okamoto-Aoki spontaneously hypertensive rats (Taconic Farms, Germantown, NY)
T1 sequence (P49430 1-533): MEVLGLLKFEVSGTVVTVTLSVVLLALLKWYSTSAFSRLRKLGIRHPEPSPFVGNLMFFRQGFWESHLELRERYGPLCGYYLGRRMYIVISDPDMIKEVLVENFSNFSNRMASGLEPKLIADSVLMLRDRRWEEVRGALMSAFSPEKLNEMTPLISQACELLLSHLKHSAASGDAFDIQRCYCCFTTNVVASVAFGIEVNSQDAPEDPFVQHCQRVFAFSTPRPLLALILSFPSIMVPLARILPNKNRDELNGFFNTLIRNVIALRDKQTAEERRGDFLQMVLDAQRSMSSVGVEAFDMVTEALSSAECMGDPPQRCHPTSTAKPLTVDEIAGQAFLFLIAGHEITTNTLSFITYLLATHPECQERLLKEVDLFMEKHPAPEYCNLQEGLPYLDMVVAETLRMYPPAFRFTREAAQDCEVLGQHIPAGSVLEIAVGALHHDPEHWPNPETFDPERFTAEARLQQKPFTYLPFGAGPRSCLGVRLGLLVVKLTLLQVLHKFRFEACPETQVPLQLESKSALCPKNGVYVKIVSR
Kind of experiment: Thromboxane Synthetase Enzyme Inhibition (TXB2 formation by washed SHR platelets, RIA). It is filed as cell-based, Okamoto-Aoki spontaneously hypertensive rats (SHR). The following applies: 10 min; Dose 10^-4 (unit inferred); SHR platelet suspension, 10 minutes at 37° C. The method, then: Under urethan anesthesia, […] of arterial blood was collected in one ml. of 3.2% sodium citrate in a polystyrene tube from Okamoto-Aoki spontaneously hypertensive rats (SHR) (Taconic Farms, Germantown, NY) between 19 and 24 weeks in age. The blood was diluted with 3 ml. cold saline and centrifuged at room temperature for 15 minutes at 460xg. The platelet rich plasma (PRP) was separated. The platelets were isolated by centrifuging the PRP for 10 minutes at 1060xg and were washed in 4 ml. of cold oxygenated Krebs phosphate buffer, pH 7.4. The chilled platelets recovered from centrifuging at 800xg for 10 minutes were resuspended in oxygenated Krebs phosphate buffer and diluted to contain 4.5-6.0×10^4 platelets/μl.
The inhibition of thromboxane (TX) formation was studied by determining the concentration of thromboxane B2 (TXB2), the stable hydrolysis product of TXA2. Assay samples, prepared on ice, contained 200 μl platelet suspension, 50 μl saline and 50 μl saline and 50 μl vehicle or drug under study. The samples were incubated for 10 minutes at 37° C. in a metabolic shaker. The reaction was terminated by immersing the tubes in an ice bath and adding 50 μl of 0.5M citric acid. The samples were centrifuged for 10 minutes in a refrigerated centrifuge and the supernatants thus obtained were decanted and stored at -20° C. The TXB2 content for each sample was determined by a direct radioimmunoassay (RIA) utilizing a TXB2 specific RIA kit purchased from New England Nuclear, Boston, MA and expressed as pg TXB2 formed minute^-1 sample^-1, from which the percent inhibition of TXB2 formation was calculated.

Experiment [3] has as its system ischemic myocardium in canines. The following applies: cited from earlier work.
Experiment [4] has as its system coronary arteries of rabbits. The note with it: cited from earlier work.
Experiment [5] has as its system coronary arteries of guinea pigs. The following applies: cited from earlier work.

For `O=C(NCCCCCn1ccnc1)Nc1ccc(Cl)cc1`, the “Average MABP” value in experiment [1] was 153 mm Hg. The compound also registered an inhibition at 100 µM in experiment [2] of 92%.

Take `O=C(NCCCCn1ccnc1)Nc1ccccc1Cl` [N-(2-Chlorophenyl)-N'-[4-(-1H-imidazol-1-yl)butyl]urea]: in experiment [1], the “Average MABP” value came out at 97 mm Hg.

In the case of `O=C(NCCCn1cncn1)Nc1ccc(Cl)cc1` [N-(4-Chlorophenyl)-N'-[3-(1H-1,2,4 triazol-1-yl)propyl]urea], the “Average MABP” value in experiment [1] was 145 mm Hg. The compound also registered an inhibition at 100 µM in experiment [2] of 93%.

Regarding `O=C(NCCCn1ccnc1)Nc1ccc(Cl)cc1` [N-(4-Chlorophenyl)-N'-[3-(1H-imidazol-1-yl)propyl]urea], in experiment [1], the “Average MABP” value turned out to be 122 mm Hg. This compound also came in with an inhibition at 100 µM in experiment [2] of 92%.

Consider `O=C(NCCCn1cncn1)Nc1ccccc1Br` [N--(2-bromophenyl)-N'--[3-(1H--1,2,4-triazol-1-yl)propyl]-urea], for which the “Average MABP” value in experiment [1] is listed as 130 mm Hg. Moreover, the inhibition at 100 µM in experiment [2] was 85%.

As for `O=C(NCCCn1ccnc1)Nc1ccccc1Br` [N--(2-bromophenyl)-N'--[3-(1H--imidazole-1-yl)propyl]-urea], the “Average MABP” value in experiment [1] was 113 mm Hg. In experiment [2], this compound had an inhibition at 100 µM of 95%.

Turning to `O=C(NCCCCn1ccnc1)Nc1ccccc1Br` [N--(2-bromophenyl)-N'--[4-(1H--imidazol-1-yl)-butyl]-urea], the “Average MABP” value in experiment [1] came to 98 mm Hg.

Turning to `O=C(NCCCn1cncn1)Nc1ccccc1Cl` [N--(2-chlorophenyl)-N'--[3-(1H--1,2,4-triazol-1-yl)propyl]-urea], the “Average MABP” value in experiment [1] came out at 142 mm Hg. Moreover, in experiment [2], the inhibition at 100 µM was determined as 86%.

With `O=C(NCCCn1ccnc1)Nc1ccccc1Cl` [N--(2-chlorophenyl)-N'--[3-(1H--imidazole-1-yl)propyl]-urea], in experiment [1], the “Average MABP” value is on record as 123 mm Hg. In experiment [2], this compound yielded an inhibition at 100 µM of 94%.

On to `O=C(NCCCn1cncn1)Nc1ccccc1F` [N--(2-fluorophenyl)-N'--[3-(1H--1,2,4-triazol-1-yl)propyl]-urea], for which the “Average MABP” value in experiment [1] was 149 mm Hg. Further, the inhibition at 100 µM in experiment [2] was 70%.

As for `O=C(NCCCn1ccnc1)Nc1ccccc1F` [N--(2-fluorophenyl)-N'--[3-(1H--imidazole-1-yl)propyl]-urea], in experiment [1], the “Average MABP” value was found to be 135 mm Hg. The same compound yielded an inhibition at 100 µM in experiment [2] of 99%.

In the case of `O=C(NCCCn1cncn1)Nc1ccc(Cl)c(Cl)c1` [N--(3,4-dichlorophenyl)-N'--[3-(1H--1,2,4-triazol-1-yl)-propyl]urea], the “Average MABP” value in experiment [1] worked out at 155 mm Hg.

Turning to `O=C(NCCCn1ccnc1)Nc1ccc(Cl)c(Cl)c1` [N--(3,4-dichlorophenyl)-N'--[3-(1H--imidazole-1-yl)propyl]-urea], the “Average MABP” value in experiment [1] was found to be 146 mm Hg. In addition, in experiment [2], the inhibition at 100 µM is 95%.

As to `O=C(NCCCn1ccnc1)Nc1cccc(Cl)c1` [N--(3-chlorophenyl)-N'--[3-(1H--imidazole-1-yl)propyl]-urea], in experiment [1], the “Average MABP” value is given as 124 mm Hg. For the same compound, the inhibition at 100 µM in experiment [2] amounted to 100%.

Regarding `O=C(NCCCn1cncn1)Nc1cccc(Cl)c1` [N--(3-chlorophenyl)-N--[3-(1H--1,2,4-triazol-1-yl)propy]-urea], the “Average MABP” value in experiment [1] is reported as 149 mm Hg. In addition, in experiment [2], the inhibition at 100 µM came out at 99%.

In experiment [2], `O=C(NCCCn1cncn1)Nc1ccc(Br)cc1` [N--(4-bromophenyl)-N'--[3-(1H--1,2,4-triazol-1-yl)propyl]urea] yielded an inhibition at 100 µM of 86%.

Turning to `O=C(NCCCn1ccnc1)Nc1ccc(Br)cc1` [N--(4-bromophenyl)-N'--[3-(1H--imidazole-1-yl)propyl]-urea], the “Average MABP” value in experiment [1] is 145 mm Hg. The inhibition at 100 µM in experiment [2] was 95%.

As for `O=C(NCCCn1ccnc1-c1ccccc1)Nc1ccc(Cl)cc1` [N--(4-chlorophenyl)-N'--[3-(2-phenyl-1H--imidazol-1-yl)-propyl]urea], at 100 µM the inhibition in experiment [2] was 86%.

`Cc1cn(CCCNC(=O)Nc2ccc(Cl)cc2)cn1` [N--(4-chlorophenyl)-N'--[3-(4-methyl-1H--imidazol-1-yl)-propyl]urea]: the “Average MABP” value in experiment [1] was found to be 138 mm Hg. In experiment [2], the inhibition at 100 µM amounted to 92%.

As for `O=C(NCCCCn1ccnc1)Nc1ccc(Cl)cc1` [N--(4-chlorophenyl)-N'--[4-(1H--imidazol-1-yl)butyl]urea], the “Average MABP” value in experiment [1] amounted to 131 mm Hg. The compound further showed an inhibition at 100 µM in experiment [2] of 95%.

In experiment [2], `Cc1cn(CCCCNC(=O)Nc2ccc(Cl)cc2)cn1` [N--(4-chlorophenyl)-N'--[4-(4-methyl-1H--imidazol-1-yl)-butyl]urea] came in with an inhibition at 100 µM of 100%.

As to `O=C(NCCCn1cncn1)Nc1ccc(F)cc1` [N--(4-fluorophenyl)-N'--[3-(1H--1,2,4-triazol-1-yl)propyl]urea], the inhibition at 100 µM in experiment [2] came out at 97%.

For the compound `O=C(NCCCn1ccnc1)Nc1ccc(F)cc1` [N--(4-fluorophenyl)-N'--[3-(1H--imidazol-l-yl)propyl]-urea], in experiment [1], the “Average MABP” value worked out at 134 mm Hg. The compound further registered an inhibition at 100 µM in experiment [2] of 100%.

`COc1ccc(NC(=O)NCCCn2cncn2)cc1` [N--(4-methoxyphenyl)-N'--[3-(1H--1,2,4-triazol-1-yl)-propyl]urea] returned an inhibition at 100 µM in experiment [2] of 71%.

In the case of `COc1ccc(NC(=O)NCCCn2ccnc2)cc1` [N--[3-(1H--imidazol-1-yl)propyl]-N'--(4-methoxyphenyl)urea], testing at 100 µM in experiment [2] gave an inhibition of 94%.

Consider `O=C(NCCCn1ccnc1)Nc1ccccc1` [N--[3-(1H--imidazol-1-yl)propyl]-N'--phenylurea], for which the “Average MABP” value in experiment [1] is 141 mm Hg. For the same compound, in experiment [2], at 100 µM the inhibition was 97%.

With `Cc1ccc(NC(=O)NCCCn2ccnc2)cc1` [N--[3-(1H--imidazole-1-yl)-propyl]-N'--(4-methylphenyl)-urea], 100 µM produced 98% inhibition in experiment [2].

As to `O=C(NCCCn1cncn1)Nc1ccccc1` [N--phenyl-N'--[3-(1H--1,2,4-triazol-1-yl)propyl]urea], in experiment [1], the “Average MABP” value is 151 mm Hg.

With `O=C(NCCCn1cncn1)Nc1cccc(C(F)(F)F)c1` [N-[3-(1H-1,2,4-triazol-1-yl)propyl]-N'-[3-(trifluoromethyl)phenyl]urea], the “Average MABP” value in experiment [1] is reported as 143 mm Hg. The compound further registered an inhibition at 100 µM in experiment [2] of 99%.

Compound `O=C(NCCCn1ccnc1)Nc1cccc(C(F)(F)F)c1` [N-[3-(1H-Imidazol-1-yl)propyl]-N'-[3-(trifluoromethyl)phenyl]urea] registered an inhibition at 100 µM in experiment [2] of 100%.

On to `CCCCC[C@H](O)/C=C/[C@@H]1[C@H]2C/C(=C/CCCC(=O)O)O[C@H]2C[C@H]1O` [PGI2, Prostacyclin], for which the “effect on ischemic myocardium” value in experiment [3] was “beneficial effects”.

Regarding `CCCCC[C@H](O)/C=C/[C@H]1O[C@H]2C[C@H](O2)[C@@H]1C/C=C\CCCC(=O)O` [TXA2, thromboxane A2], the “effect of injection into coronary arteries” value in experiment [4] is “causes myocardial ischemia and subendocardial necrosis”; in experiment [5], “causes myocardial ischemia and subendocardial necrosis”.
